According to US5776902A, “Boronophenyl analogs of phospholyrosines” (Trustees of Tufts University, priority 1995, dated 1998):

What was measured:
[1] = target: T1, SH2 mediated interaction of middle T and fyn (Homo sapiens, UniProt P06241); assay: Effect on Middle T/fyn interaction (GST-Fyn pull-down of 32P-labeled middle T, autoradiography); type: binding; conditions: GST-Fyn on glutathione-Sepharose beads, 32P-labeled polyoma Middle T, SDS gel autoradiography (FIG. 6); inhibitor 3.95×10^-4 M to 3.95×10^-5 M
T1 construct: host or cells: middle T: Sf9 cells (baculovirus co-expression with src)
Experimental: Approximately 10 μg of a GST-Fyn fusion protein bound to 10 μl of glutathione-Sepharose beads were incubated with 90 μl of buffer (TEB, pH 9.0) and 10 μl of DMSO or DMSO containing an isomer (#1 or #2) of compound 36 (lanes 2 and 3 equal 3.95×10^-4 M; lane 4 equals 1.32×10^-4 M; lane 5 equals 3.95×10^-5 M). Lane 1 contains no inhibitor. The lanes labeled "MT 315" (lanes 6 and 7) are reaction mixutures as above, but having 20 μg of peptide (middle T residues EEYMPMED) instead of the benzodiazepine 36. The label "pY" indicates the peptide was phosphorylated, while unphosphoryalated peptide is designated as "-". The reaction mixtures were incubated for 1 hour, then 100 μL ^32 P-labeled Middle T (polyoma), prepared from baculovirus co-expression of middle T and src in Sf9 cells, were added to each reaction and incubated for 1 hour more at 4° C. The sepharose was washed with twice with PBS, and once with distilled water, boiled in SDS dissociation buffer, and run on a 7.5% acrylamide SDS gel. Labeled MT was visualized on the gel by autoradiography, and the inhibition of MT/fyn interaction determined.

[2] = target: T2, lck-SH2 (Homo sapiens, UniProt P06239); assay: IDEXX lck-SH2 binding assay (GST-SH2 beads, FITC-labeled peptide EPQYEEIPIYL); conditions: inhibition of binding of FITC-labeled peptide to GST-lck SH2 beads (FIG. 7)
T2 construct: made in house; host or cells: E. coli
Experimental: In order to assess the inhibitory activity of the present peptidomimetics, the ability of the subject compounds to inhibit the interaction between a specific peptide and an SH2 domain was determined. Various SH2 domains were subcloned in frame with the glutathione-S-transferase affinity tag of the pGEX vector system (Pharmacia catalog no. PGEX-4T-3). The resulting pGEX-E2 construct encoded a glutathione-S-transferase (GST)/SH2 fusion protein (Smith et al. (1988) Gene 67:31-40). The pGEX construct was introduced into E. coli by transfromation, and the transformants grown in liquid media (LB) in the presence of IPTG. Purification of GST/E2 fusion protein was by standard protocols (Current Protocols in Molecular Biology, eds. Ausubel et al. (NY:John Wiley & Sons, 1991); Pharmacia instruction booklet (for catalog no. 27-4570)) using a glutathione-sepharose column (Pharmacia catalog no. 27-4570). Briefly, the cells were pelleted and resuspended in buffer A (50 mM TRIS (pH7.5), 2 mM EDTA, 250 mM NaCl, 5% glycerol (V/V), 1% Tween (V/V), 1% Triton X 100 (V/V)), to which 2 mM PMSF and 15 mM 2-mercaptoethanol were added. […]

T1 sequence (P06241 whole entry, species assumed): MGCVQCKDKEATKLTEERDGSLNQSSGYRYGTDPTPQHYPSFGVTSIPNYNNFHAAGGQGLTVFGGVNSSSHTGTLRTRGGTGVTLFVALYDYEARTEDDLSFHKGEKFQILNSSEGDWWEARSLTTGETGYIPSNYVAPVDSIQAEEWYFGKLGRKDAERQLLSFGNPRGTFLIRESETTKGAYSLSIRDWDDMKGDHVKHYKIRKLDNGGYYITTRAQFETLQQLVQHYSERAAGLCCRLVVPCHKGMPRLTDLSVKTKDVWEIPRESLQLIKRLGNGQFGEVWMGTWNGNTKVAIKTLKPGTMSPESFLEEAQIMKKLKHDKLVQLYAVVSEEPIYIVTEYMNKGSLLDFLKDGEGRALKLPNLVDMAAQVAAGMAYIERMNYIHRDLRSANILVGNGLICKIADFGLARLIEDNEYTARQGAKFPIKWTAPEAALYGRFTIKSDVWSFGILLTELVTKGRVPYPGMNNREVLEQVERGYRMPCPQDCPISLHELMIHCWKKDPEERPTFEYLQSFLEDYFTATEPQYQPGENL
T2 sequence (P06239 127-224 limits assumed): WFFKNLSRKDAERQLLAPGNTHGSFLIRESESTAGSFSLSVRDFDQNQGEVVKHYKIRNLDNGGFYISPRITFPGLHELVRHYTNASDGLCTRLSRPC

Row | Compound | inhibition of MT/fyn interaction [1] | IC50 [2]
1 | CC[C@H](C)[C@H](NC(=O)CN1C(=O)C(NC(=O)[C@H](Cc2ccc(OP(=O)(O)O)cc2)NC(C)=O)N=C(c2ccccc2)c2ccccc21)C(=O)OC (stereo partly shown) [compound 36] | both isomers of 36 displayed inhibitory action | 271 µM
2 | CC[C@H](C)[C@H](NC(=O)CN1C(=O)C(NC(=O)[C@H](Cc2ccc(OP(=O)(O)O)cc2)NC(=O)OCC2c3ccccc3-c3ccccc32)N=C(c2ccccc2)c2ccccc21)C(=O)OC (stereo partly drawn) [FMOC-derivative, 1,3-Dihydro-1-[(methoxy-L-isoleucyl)carbonylmethyl)-5-phenyl-3(R,S)-{[(N-fluorenylmethoxycarbonyl)phosphono-L-tyrosyl]amino}-2H-1,4-benzodiazepin-2-one] | – | 48.2 µM
3 | CC[C@H](C)[C@H](NC(=O)CN1C(=O)C(NC(=O)[C@H](Cc2ccc(OP(=O)(O)O)cc2)NC(C)=O)N=C(c2ccccc2)c2ccccc21)C(=O)OC (single isomer, unassigned; isomer #2) [isomer #2] | more potent inhibitor | –
